Measurements reported in US20060165683A1, “Methods and compositions for control of bone formation via modulation of sympathetic tone” (priority 2001, published 2006).

B1: leptin: polypeptide hormone, product of the ob gene; human leptin (Sigma) infused ICV (protein)
chain: VPIQKVQDDTKTLIKTIVTRINDISHTQSVSAKQRVTGLDFIPGLHPILSLSKMDQTLAVYQQVLTSLPSQNVLQIANDLENLRDLLHLLAFSKSCSLPQTSGLQKPESLDGVLEASLYSTEVVALSRLQGSLQDILQQLDVSPEC

Experiments:
ob/ob mice = assay: Long-term isoproterenol treatment of ob/ob mice; type: in vivo, mouse
Experimental: Wildtype (C57BL/6J) and mutant (C57BL/6J A^y/a, C57BL/6J ob/ob) mice were obtained from the Jackson laboratory and adrenal medullectomized mice from Harlan Tecklad laboratory. Dbh−/− mice were rescued as previously described (Thomas et al., 1998, Neurochem 70:2468-2476). […] Propranolol (Sigma) was added to the drinking water at a concentration of 0.5 g/l. For ICV infusion, a 28-gauge cannula (Brain infusion kit II, Alza) was implanted into the third ventricle as previously described infusing human leptin (Sigma) at 8 ng/hr or MT-II at 125 ng/hr (Phoenix Pharmaceuticals) for 28 days (see, e.g., Ducy et al., 2000, Cell 100: 197-207). The cannula was connected to an osmotic pump (Alza) placed in the dorsal subcutaneous space of the animal. For parabiosis longitudinal incisions were made in the skin and in the peritoneal cavity along one side on each mouse. Edges of the incisions were connected by suture to induce coelioanastomosis. Cross-circulation was quantified by injecting 1 ml/kg 0.25% Evans blue into the tail vein of one mouse of the parabiosed pair. After 30 min. blood was collected from both mice by retroorbital bleeding and the blood exchange rate was calculated according to standard techniques (see, e.g., Harris & Martin, 1984, Am J Physiol 247:R380-386). […] Two weeks after parabiosis a pump delivering leptin ICV in one animal of each pair was implanted. For GTG lesioning, 4-week-old C57BL/6J mice were given a single ip injection of either PBS or GTG (0.5 mg/g). For MSG lesioning, 2 day-old C57BL/6J pups were injected daily subcutaneously with either PBS or MSG (2 mg/g) for 10 days.
Histological analyses were performed on undecalcified sections stained by von Kossa and counterstained by von Gieson (see, e.g., Ducy et al., 2000, Cell 100:197-207). Static and dynamic histomorphometric analyses were performed according to standard protocols (see, e.g., Parfitt et al., 1987, J Bone Miner Res 6:595-610) using the Osteomeasure Analysis System (Osteometrics, Atlanta). Six to 12 animals were analyzed for each group. Statistical significance was assessed by Student's t test.
(§1) Primary osteoblast cultures were established as previously described (see, e.g., Ducy et al., 2000, Cell 100: 197-207) and maintained in αMEM/0.1 mg/ml ascorbic acid supplemented with 10% FBS. SaOS-2 were grown in MEM/10% FBS. For cAMP assay confluent cultures were incubated with serum free medium containing 100 μM IBMX (3-isobutyl-1-methylxanthine, Sigma) for 8 minutes before PBS, PTH(1-34) (Bachem), isoproterenol, norepinephrine, phenylephrine (Sigma) or propranolol were added for 5 min. Intracellular cAMP concentration was measured by immunoassay (R&D Systems). For gene expression analyses, primary osteoblasts were treated for 72 hours with appropriate drugs in 0.1% FBS. Hormone serum levels were quantified using immunoassays kits from Peninsula Laboratories (Insulin) or Alpco Diagnostics (leptin). Deoxypyridinoline cross-links and Creatinine were measured in morning urines using the Quidel kits. a1(I) leptin bioactivity was verified by cotransfection of 293 cells expressing ObRb with a STAT3-responsive-luc reporter construct, pSVβgal plasmid and a1(I) leptin expression vector or mock. Twenty-four hours later luciferase and β-galactosidase activities were measured. Data represents ratios of luciferase/β-galactosidase activities, and values are mean of 6 independent transfection experiments.
To address this point one month-old ob/ob mice were treated for 6 weeks with the β-adrenergic agonist isoproterenol or vehicle.

primary osteoblasts = assay: Gene expression and apoptosis in primary osteoblasts; type: cell-based, mouse
Experimental: as §1
To elucidate the bases of the antiosteogenic effect of isoproterenol in vivo, osteoblast proliferation, gene expression and apoptosis were studied.

MSG-lesioned ob/ob mice = assay: Leptin ICV infusion in MSG-lesioned ob/ob mice; type: in vivo, mouse
Experimental: (§2) Wildtype (C57BL/6J) and mutant (C57BL/6J A^y/a, C57BL/6J ob/ob) mice were obtained from the Jackson laboratory and adrenal medullectomized mice from Harlan Tecklad laboratory. Dbh−/− mice were rescued as previously described (Thomas et al., 1998, Neurochem 70:2468-2476). Isoproterenol (Sigma) was injected intraperitoneally (ip) once daily for 6 weeks at 30 mg/kg (wt) or 3 mg/kg (ob/ob). Propranolol (Sigma) was added to the drinking water at a concentration of 0.5 g/l. For ICV infusion, a 28-gauge cannula (Brain infusion kit II, Alza) was implanted into the third ventricle as previously described infusing human leptin (Sigma) at 8 ng/hr or MT-II at 125 ng/hr (Phoenix Pharmaceuticals) for 28 days (see, e.g., Ducy et al., 2000, Cell 100: 197-207). The cannula was connected to an osmotic pump (Alza) placed in the dorsal subcutaneous space of the animal. For parabiosis longitudinal incisions were made in the skin and in the peritoneal cavity along one side on each mouse. Edges of the incisions were connected by suture to induce coelioanastomosis. Cross-circulation was quantified by injecting 1 ml/kg 0.25% Evans blue into the tail vein of one mouse of the parabiosed pair. After 30 min. blood was collected from both mice by retroorbital bleeding and the blood exchange rate was calculated according to standard techniques (see, e.g., Harris & Martin, 1984, Am J Physiol 247:R380-386). […]

GTG-treated ob/ob mice = assay: Leptin ICV infusion in GTG-treated ob/ob mice; type: in vivo, mouse
Experimental: as §2

[1] = ob/ob mice, 3 mg/kg/day, 6 weeks
[2] = primary osteoblasts, 72 hours, 0.1% FBS, Northern blot

| Molecule | Bone Volume (ob/ob mice; ob/ob + isoproterenol) | expression of uncoupling protein 1 (Ucp1) in brown adipose tissue (ob/ob mice; ob/ob mice) | bone formation rate (ob/ob mice; [1]) | bone resorption parameters (ob/ob mice; [1]) | number of osteoblasts per bone surface (ob/ob mice; [1]) | bone mass and bone formation parameters compared with 3 mg/kg/day (ob/ob mice; ob/ob mice, 10 mg/kg/day) | body weight (ob/ob mice; ob/ob mice, 3 and 10 mg/kg/day) | bone mass in the vertebrae and long bones (ob/ob mice; one month-old ob/ob mice, 3 mg/kg/day ip, 6 weeks) | apoptosis: Caspase 3 expression and Annexin-V staining levels (primary osteoblasts; isoproterenol-treated versus control osteoblasts) | expression of Cbfa1 (primary osteoblasts; [2]) | expression of a1(I) collagen (primary osteoblasts; [2]) | Bone Volume (MSG-lesioned ob/ob mice) | body weight (MSG-lesioned ob/ob mice) | body weight (GTG-treated ob/ob mice) | bone mass (GTG-treated ob/ob mice) |
| --- | --- | --- | --- | --- | --- | --- | --- | --- | --- | --- | --- | --- | --- | --- | --- |
| CC(C)NCC(O)c1ccc(O)c(O)c1 (stereo not drawn) [isoproterenol] | Low | increased | marked decrease | unaffected | marked decrease | Identical results | without affecting | massive bone loss | did not observe any change | decreased | decreased | – | – | – | – |
| B1 | – | – | – | – | – | – | – | – | – | – | – | decreases | does not affect | decreased | failed to decrease |
